Laboratory results published in PubChem BioAssay AID449745 (Broad Institute, 2010).
Inconclusive results are not listed. The source made the active and inactive calls. How the calls were made is not given here.

These compounds were tested against Zinc finger protein mex-5 (Caenorhabditis elegans) (UniProt Q9XUB2) (assay: MEX-5 RNA-binding inhibition confirmation – biochemical, C. elegans, fluorescence polarization, dose retest (AID 449745;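 further: potency is for blocking Mex-5 binding to labeled TCR2 RNA like unlabeled competitor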)). Settings: Mex-5 / TCR-2 RNA binding.
Sequence of Zinc finger protein mex-5 (Caenorhabditis elegans) (Q9XUB2 whole entry, looked up): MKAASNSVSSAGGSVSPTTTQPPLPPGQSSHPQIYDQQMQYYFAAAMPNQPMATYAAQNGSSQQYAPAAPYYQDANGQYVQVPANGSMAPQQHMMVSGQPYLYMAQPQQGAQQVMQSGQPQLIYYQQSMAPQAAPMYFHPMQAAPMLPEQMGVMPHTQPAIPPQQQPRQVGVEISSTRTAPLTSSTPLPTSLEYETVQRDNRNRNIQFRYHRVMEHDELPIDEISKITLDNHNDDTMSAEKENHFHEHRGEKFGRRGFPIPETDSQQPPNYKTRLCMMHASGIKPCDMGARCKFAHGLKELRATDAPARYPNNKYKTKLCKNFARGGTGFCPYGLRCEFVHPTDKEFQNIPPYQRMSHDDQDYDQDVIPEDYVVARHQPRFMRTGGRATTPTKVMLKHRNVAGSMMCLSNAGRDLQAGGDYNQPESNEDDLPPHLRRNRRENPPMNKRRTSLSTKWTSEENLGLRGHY

Question: `NS(=O)(=O)c1ccc(N=Nc2c(=O)[nH]n3c(=O)c4c([nH]c23)CCCC4)cc1` was tested. Which AC50 did it give?
Answer: < 0.3 µM

Question: Which AC50 does the source give for `CCCCOc1ccc(-c2cc(C(F)(F)F)c(C#N)c(SCC(=O)O)n2)cc1` here?
Answer: 11.8 µM

Question: For `O=C(O)c1c2c(nc3ccccc13)/C(=C/c1ccc(O)cc1)CC2`, which AC50 is on record?
Answer: 36.4 µM

Question: Which AC50 does the source give for `Cn1c(=O)c2[nH]c(-c3ccccc3)c(O)c2n(C)c1=O` here?
Answer: 0.895 µM

Question: For `COC(=O)/C=C1/S/C(=N/NC(=O)c2ccc(Cl)cc2Cl)NC1=O`, which AC50 is on record?
Answer: 22.4 µM

Question: For `CCc1cccc2cc3c(N)c(C(=O)Nc4ccc(S(=O)(=O)N5CCCC5)cc4)sc3nc12`, which AC50 is on record?
Answer: 8.06 µM

Question: Which AC50 does the source give for `NC1=NC(=O)/C(=C\C=C\c2ccccc2)S1` here?
Answer: > 38 µM (inactive)

Question: `O=[N+]([O-])c1ccc(O)c(C=Nc2ccc3c(c2)OCCO3)c1` was tested. Which AC50 did it give?
Answer: > 38 µM (inactive)

Question: For `O=C(Nc1ccc(S(=O)(=O)Nc2nccs2)cc1)c1ccc(N2C(=O)c3ccccc3C2=O)cc1`, which AC50 is on record?
Answer: > 38 µM (inactive)

Question: `CCCCn1c(O)c(N=Nc2ccccn2)c2ccccc21` was tested. Which AC50 did it give?
Answer: 24.2 µM

Question: How did the AC50 turn out when `CCOC(=O)c1c(-c2ccccc2)oc2ccc(OCC(=O)NNC(=O)CCC(=O)O)cc12` was run?
Answer: 15.1 µM

Question: How did the AC50 turn out when `O=C(Nc1ccccc1F)C(=Cc1sc(N2CCOCC2)nc1-c1ccccc1)C(=O)Nc1ccccc1F` was run?
Answer: 29.4 µM

Question: How did the AC50 turn out when `CC1=NOC(=O)/C1=C/c1ccc2c(c1)OCO2` was run?
Answer: > 38 µM (inactive)

Question: For `CCOC(=O)C(=NC(C)C)NNc1cc(Cl)ccc1Cl`, which AC50 is on record?
Answer: > 38 µM (inactive)

Question: For `O=C(O)C1Nc2c(Cl)cc(Cl)cc2C2C=CCC12` (configuration not stated), which AC50 is on record?
Answer: 33.2 µM

Question: With `CN(C)c1ccc(/C=C/c2nc3ccccc3c(=O)[nH]2)cc1` as the compound, how does the AC50 read?
Answer: > 38 µM (inactive)

Question: With `CCOC(=O)C(C(=O)OCC)c1cc(Br)c2noc3c2c1C(=O)c1ccccc1-3` as the compound, how does the AC50 read?
Answer: < 0.3 µM

Question: Which AC50 does the source give for `O=C1/C(=C\c2ccc(Br)cc2)SC(=S)N1NS(=O)(=O)c1ccccc1` here?
Answer: 17.7 µM

Question: `CC1CN(c2nc3ccccc3nc2C(C#N)C(=O)NCc2ccc3c(c2)OCO3)CC(C)O1` (configuration not stated) was tested. Which AC50 did it give?
Answer: 23.8 µM

Question: `Cc1ccc(N=Nc2c(O)n(CN3CCOCC3)c3ccccc23)cc1` was tested. Which AC50 did it give?
Answer: 11.4 µM

Question: Which AC50 does the source give for `COc1ccc(CC(=O)NNC(=O)c2cnccn2)cc1` here?
Answer: 15.5 µM

Question: For `Cc1ccc(C(=O)N/C(=C\c2ccc(-c3ccc([N+](=O)[O-])cc3)o2)C(=O)NC2CCS(=O)(=O)C2)cc1` (configuration not stated), which AC50 is on record?
Answer: > 38 µM (inactive)

Question: Which AC50 does the source give for `Cc1ccccc1Nc1cc2ccccc2c(=O)[nH]1` here?
Answer: 14.3 µM

Question: Which AC50 does the source give for `COc1ccc(C(=O)N2C(=S)NC(=O)/C2=C\c2ccc(C)cc2)cc1` here?
Answer: > 38 µM (inactive)

Question: Which AC50 does the source give for `C=C1c2cccc(O)c2C(O)=C2C(=O)[C@]3(O)C(O)=C(C(N)=O)C(=O)[C@@H](N(C)C)[C@@H]3[C@@H](O)[C@H]12` here?
Answer: 17.7 µM

Question: How did the AC50 turn out when `CCOC(=O)c1c(/N=C/C2C(=O)NC(=S)NC2=O)sc2c1CCC2` was run?
Answer: 12.8 µM

Question: How did the AC50 turn out when `CCn1c(C)c(C(C)=O)c(N2CCN(c3ccccc3)CC2)nc1=S` was run?
Answer: > 38 µM (inactive)

Question: `COc1ccc2ccccc2c1CNCc1ccccn1` was tested. Which AC50 did it give?
Answer: > 38 µM (inactive)

Question: `NC(=S)N/N=C/c1cccc(O)c1O` was tested. Which AC50 did it give?
Answer: 21.2 µM

Question: How did the AC50 turn out when `COc1cccc(CN2C(=O)c3cccc(N)c3C2=O)c1` was run?
Answer: 32 µM

Question: For `N#C/C(=C\c1cn(-c2ccccc2)nc1-c1cc2ccccc2o1)c1nc2ccccc2[nH]1`, which AC50 is on record?
Answer: > 38 µM (inactive)

Question: `O=C(c1ccc(Cl)cc1)C1C2C(=O)N(c3ccccc3)C(=O)C2C2CCCN21` (configuration not stated) was tested. Which AC50 did it give?
Answer: 19.8 µM

Question: How did the AC50 turn out when `Cc1nn(C)cc1C(=O)NNC(=S)Nc1ccccc1` was run?
Answer: 19.5 µM

Question: `O=C(CCN1C(=O)/C(=C/c2ccco2)SC1=S)Nc1ccc(C(=O)O)c(O)c1` was tested. Which AC50 did it give?
Answer: 30.6 µM

Question: With `O=c1c2ccccc2c(C=Nc2ccc(O)cc2)c(O)n1-c1nccs1` as the compound, how does the AC50 read?
Answer: > 38 µM (inactive)

Question: With `O=C(c1nc2ccc(Cl)cn2c1CN1CCCC1)N1CCc2ccccc2C1` as the compound, how does the AC50 read?
Answer: 23.7 µM

Question: How did the AC50 turn out when `CCOC(=O)/C(C#N)=C/c1ccc(-c2ccsc2C(=O)OC)o1` was run?
Answer: > 38 µM (inactive)

Question: Which AC50 does the source give for `O=C1c2ccccc2C(=O)N1/N=C/c1ccc(O)c(O)c1O` here?
Answer: 0.798 µM

Question: With `CN(C)c1ccc(N=Cc2nc(-c3ccccc3)oc2OC(=O)c2cccc(Br)c2)cc1` as the compound, how does the AC50 read?
Answer: > 38 µM (inactive)

Question: With `CC1(OC(=O)c2ccc(Cl)nc2)C(=O)C=C2C=C(c3ccc(C#N)cc3)OC=C2C1=O` (configuration not stated) as the compound, how does the AC50 read?
Answer: 20 µM

Question: How did the AC50 turn out when `N#Cc1c(C#N)c(O)c2ccccc2c1O` was run?
Answer: 11.3 µM

Question: Which AC50 does the source give for `Cc1cccc(-n2c(O)c(/C=N/Nc3nc4c(c(=O)n(C)c(=O)n4C)n3C)c(=O)[nH]c2=S)c1` here?
Answer: 7.45 µM

Question: `Cc1cccc(-n2c(O)c(C=Nc3ccc4c(c3)OCO4)c3ccccc3c2=O)n1` was tested. Which AC50 did it give?
Answer: 39 µM

Question: For `CC[n+]1c(/C=C/C=C/c2ccc(N(C)C)cc2)sc2ccccc21`, which AC50 is on record?
Answer: 18.8 µM

Question: `CC1(C)CC(=O)C2=C(C1)OC(N)=C(C#N)C2c1ccccc1[N+](=O)[O-]` (configuration not stated) was tested. Which AC50 did it give?
Answer: > 38 µM (inactive)

Question: For `COc1ccc(NC(=S)NNc2ccc(S(=O)(=O)Nc3ccccc3C(=O)O)cc2[N+](=O)[O-])cc1`, which AC50 is on record?
Answer: 6.28 µM

Question: How did the AC50 turn out when `Cc1cc(/C=C2\C(=O)NC(=O)N(Cc3ccccc3)C2=O)c(C)n1-c1ccc(Cl)c(C(=O)O)c1` was run?
Answer: 33.2 µM

Question: Which AC50 does the source give for `O=C(/C=C/Nc1ccc(S(=O)(=O)Nc2cnc3ccccc3n2)cc1)c1ccccc1` here?
Answer: > 38 µM (inactive)

Question: How did the AC50 turn out when `Nc1nnnn1/N=C/c1cc(Cl)ccc1O` was run?
Answer: 37.5 µM

Question: With `O=c1[nH][nH]c2cc(=O)n(-c3cccc(C(F)(F)F)c3)nc12` as the compound, how does the AC50 read?
Answer: 20.3 µM

Question: With `COCC(C)N1CCC(Oc2cccc(C(=O)NCCc3ccccc3)c2)CC1` (configuration not stated) as the compound, how does the AC50 read?
Answer: > 38 µM (inactive)

Question: With `CCNC(=S)N/N=C/c1sc(N2CCCCC2)nc1-c1cccs1` as the compound, how does the AC50 read?
Answer: 10 µM

Question: How did the AC50 turn out when `Cc1cc[n+](-c2[nH]c(=O)sc2/C=N/N=C(\[O-])c2ccncc2)cc1` was run?
Answer: 29.4 µM

Question: Which AC50 does the source give for `COc1ccc(C(=O)c2c(N)sc3c2CCN(C)C3)cc1` here?
Answer: > 38 µM (inactive)

Question: With `CN1C(=O)/C(=C/c2ccco2)SC1=Nc1cccc(C(=O)O)c1` as the compound, how does the AC50 read?
Answer: > 38 µM (inactive)

Question: How did the AC50 turn out when `CC1(C)CC2(CC(c3ccccc3F)c3ccc(O)c(O)c3O2)NC(=S)N1` (configuration not stated) was run?
Answer: 0.638 µM

Question: `O=c1[nH]c(/C=C/c2cccc3ccccc23)nc2ccccc12` was tested. Which AC50 did it give?
Answer: > 38 µM (inactive)

Question: How did the AC50 turn out when `COc1ccccc1CN1CC(C(=O)NCCN(C)CCc2ccccc2)CCC1=O` (configuration not stated) was run?
Answer: > 38 µM (inactive)

Question: Which AC50 does the source give for `O=c1[nH]c(=S)n(-c2ccc(Cl)cc2)c(O)c1C=Nc1ccc(N2CCOCC2)cc1` here?
Answer: 30 µM

Question: With `COc1ccc(N/C=C/C(=O)c2ccc3c(c2)OCO3)cc1OC` as the compound, how does the AC50 read?
Answer: > 38 µM (inactive)

Question: How did the AC50 turn out when `CC1(OC(=O)C2CCCC2)C(=O)C=C2C=C(c3ccc(C#N)cc3)OC=C2C1=O` (configuration not stated) was run?
Answer: 9.38 µM

Question: `Cc1ccc(C(=O)O)cc1N1C(=O)c2cccc3c([N+](=O)[O-])ccc(c23)C1=O` was tested. Which AC50 did it give?
Answer: 25.6 µM

Question: How did the AC50 turn out when `CN(C)c1ccc(/C=N/NC(=O)c2cnc3ccccc3c2)cc1` was run?
Answer: 31.7 µM

Question: `CCC(C)[C@H](NC(=O)C1CC(=O)N(c2ccc3c(c2)OCO3)C1)C(=O)NC1CCCCC1` (some centres not stated) was tested. Which AC50 did it give?
Answer: 35.8 µM

Question: With `CCCCN(C(=O)C1=COCCO1)c1c(N)n(Cc2ccccc2)c(=O)[nH]c1=O` as the compound, how does the AC50 read?
Answer: > 38 µM (inactive)

Question: For `CC1(C)CC(=O)C2=C(C1)N=c1s/c(=C/c3ccc(F)c(F)c3)c(=O)n1C2c1ccc(F)cc1` (configuration not stated), which AC50 is on record?
Answer: > 38 µM (inactive)

Question: For `CCOC(=O)c1ccc(-c2ccc(/C=C(\C#N)C(=O)NCC3CCCO3)o2)cc1` (configuration not stated), which AC50 is on record?
Answer: > 38 µM (inactive)

Question: With `CC1CC(=O)c2c(cc3c(-c4c(O)cc(O)c5c(O)c6c(cc45)OC(C)CC6=O)c(O)cc(O)c3c2O)O1` (configuration not stated) as the compound, how does the AC50 read?
Answer: 2.07 µM

Question: Which AC50 does the source give for `Cc1ccc(S(=O)(=O)N/N=C/c2ccc(O)c(O)c2)cc1[N+](=O)[O-]` here?
Answer: 27 µM

Question: Which AC50 does the source give for `CCOC(=O)c1c(/N=C/c2ccc(OC)cc2O)sc2c1CCN(C)C2` here?
Answer: > 38 µM (inactive)

Question: For `COc1ccc(N=C2S/C(=C\c3cc(C)n(C)c3C)C(=O)N2C)cc1`, which AC50 is on record?
Answer: > 38 µM (inactive)

Question: `COc1ccc2cc(/C=C3\SC(=S)NC3=O)c(N3CCOCC3)nc2c1` was tested. Which AC50 did it give?
Answer: 24.1 µM
